{
  "source": "patent US20250313527A1",
  "about": "“AMPHIPHILIC LIPID INCLUDING TERTIARY AMINE N-OXIDE GROUP, LIPOSOMAL DRUG-DELIVERY SYSTEM, AND USE OF AMPHIPHILIC LIPID” (HANGZHOU TITO BIOTECHNOLOGY PARTNERSHIP ENTERPRISE (LIMITED …, priority 2022, published 2025)",
  "assay": "Plasma clearance and tissue distribution (in vivo imaging of DiR fluorescence)",
  "conditions": "HepG2 tumor-bearing BALB/c nude mice, intravenous injection, FIG. 12 to FIG. 13",
  "method": "Female BALB/c nude mice bearing HepG2 subcutaneous tumors (about 70 mm^3) were randomly divided into three groups with 3 mice in each group, and intravenously injected with DiR, ^DiRODML, or ^DiRODEL. 24 h later, blood was collected from the orbital veins of mice. 500 μL of a blood sample was taken and tested by a small animal in vivo imaging instrument for a fluorescence intensity. Mice were dissected, and tissues such as a heart, a liver, a spleen, a lung, a kidney, an intestine, and a tumor were collected. Each tissue was detected by a small animal in vivo imaging instrument for a fluorescence intensity.",
  "data": [
    {"compound": "CCCCCCCCCCCCCCCCCCN1/C(=C/C=C/C=C/C=C/C2=[N+](CCCCCCCCCCCCCCCCCC)c3ccccc3C2(C)C)C(C)(C)c2ccccc21.[I-]", "note": "[DiR]", "values": [
      {"measurement": "DiR fluorescence signal in the blood or tissues", "value": "Almost no fluorescence signal"}
    ]}
  ]
}
